# Experimental data from ChEMBL document CHEMBL1137340, “Binding of 13-amidohuprines to acetylcholinesterase: exploring the ligand-induced conformational change of the gly117-gly118 peptide bond in the oxyanion hole” (J Med Chem, 2006).
# Assays:
# Acetylcholinesterase [1] = biological target: T1, Acetylcholinesterase (Bos taurus, UniProt P23795)
# T1 sequence (P23795 whole entry): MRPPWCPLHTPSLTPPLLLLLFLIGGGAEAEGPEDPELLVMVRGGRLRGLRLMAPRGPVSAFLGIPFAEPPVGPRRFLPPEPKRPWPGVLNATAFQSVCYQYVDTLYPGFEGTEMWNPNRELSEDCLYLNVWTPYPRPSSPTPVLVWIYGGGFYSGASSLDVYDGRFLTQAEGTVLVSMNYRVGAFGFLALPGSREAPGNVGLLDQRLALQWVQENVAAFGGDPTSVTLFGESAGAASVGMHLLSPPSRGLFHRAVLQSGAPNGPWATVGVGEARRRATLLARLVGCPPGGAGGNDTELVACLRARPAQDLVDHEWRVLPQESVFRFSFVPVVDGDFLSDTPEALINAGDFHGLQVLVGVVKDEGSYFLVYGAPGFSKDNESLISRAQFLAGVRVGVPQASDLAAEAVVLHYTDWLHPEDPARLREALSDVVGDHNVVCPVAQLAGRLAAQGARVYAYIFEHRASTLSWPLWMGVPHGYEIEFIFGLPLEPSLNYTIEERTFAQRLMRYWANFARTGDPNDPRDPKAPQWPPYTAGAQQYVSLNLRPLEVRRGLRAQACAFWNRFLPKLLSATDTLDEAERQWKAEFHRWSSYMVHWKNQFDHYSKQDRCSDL
# Description: Inhibition of bovine erythrocyte AChE
# Acetylcholinesterase [2] = biological target: T1, Acetylcholinesterase; remark: listed apart in the source
# Description: Inhibition of bovine erythrocyte AChE after 45 mins
# Cholinesterase = Cholinesterase (Homo sapiens, UniProt P06276)
# Cholinesterase, sequence (P06276 whole entry): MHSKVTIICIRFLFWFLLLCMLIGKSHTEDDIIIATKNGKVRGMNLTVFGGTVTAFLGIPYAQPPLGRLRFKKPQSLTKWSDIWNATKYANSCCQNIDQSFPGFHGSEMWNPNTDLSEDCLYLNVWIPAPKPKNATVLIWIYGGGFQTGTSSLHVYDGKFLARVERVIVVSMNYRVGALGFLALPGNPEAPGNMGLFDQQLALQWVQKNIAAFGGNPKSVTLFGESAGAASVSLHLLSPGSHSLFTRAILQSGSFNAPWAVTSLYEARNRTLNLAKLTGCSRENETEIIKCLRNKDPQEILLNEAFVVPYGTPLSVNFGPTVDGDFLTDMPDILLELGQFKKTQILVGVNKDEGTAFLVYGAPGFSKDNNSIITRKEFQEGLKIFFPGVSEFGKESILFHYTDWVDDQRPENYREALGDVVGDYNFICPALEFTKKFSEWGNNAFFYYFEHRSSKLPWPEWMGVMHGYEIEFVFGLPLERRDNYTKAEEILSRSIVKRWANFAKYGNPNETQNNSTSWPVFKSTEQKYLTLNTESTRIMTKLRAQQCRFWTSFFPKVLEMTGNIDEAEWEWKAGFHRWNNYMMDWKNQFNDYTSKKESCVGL
# Description: Inhibition of human serum BChE
# Acetylcholinesterase [3] = biological target: Acetylcholinesterase (Homo sapiens, UniProt P22303)
# Acetylcholinesterase (Homo sapiens, UniProt P22303), sequence (P22303 whole entry): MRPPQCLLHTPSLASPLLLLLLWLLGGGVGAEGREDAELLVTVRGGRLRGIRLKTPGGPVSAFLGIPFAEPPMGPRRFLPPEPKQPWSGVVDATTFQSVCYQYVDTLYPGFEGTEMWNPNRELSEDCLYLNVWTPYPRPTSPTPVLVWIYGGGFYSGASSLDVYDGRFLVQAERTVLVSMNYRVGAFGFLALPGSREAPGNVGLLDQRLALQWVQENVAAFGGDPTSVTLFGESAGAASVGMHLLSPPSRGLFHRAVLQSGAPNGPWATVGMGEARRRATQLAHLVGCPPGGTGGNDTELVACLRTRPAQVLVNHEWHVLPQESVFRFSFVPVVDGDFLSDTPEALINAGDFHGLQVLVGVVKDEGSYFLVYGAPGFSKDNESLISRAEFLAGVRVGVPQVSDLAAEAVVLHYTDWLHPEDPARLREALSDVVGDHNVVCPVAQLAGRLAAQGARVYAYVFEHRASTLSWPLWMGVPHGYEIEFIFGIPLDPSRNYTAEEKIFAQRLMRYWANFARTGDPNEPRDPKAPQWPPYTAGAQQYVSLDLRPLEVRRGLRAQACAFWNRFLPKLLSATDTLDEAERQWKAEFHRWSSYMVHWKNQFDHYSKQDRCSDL
# Description: Inhibition of human erythrocyte AChE
Compound,IC50 (Acetylcholinesterase [1]),IC50 (Acetylcholinesterase [2]),IC50 (Cholinesterase),IC50 (Acetylcholinesterase [3])
CC1=C[C@@H]2Cc3nc4cc(Cl)ccc4c(N)c3[C@H](C1)C2,0.00115 µM,–,–,–
CCC1=C[C@@H]2Cc3nc4ccccc4c(N)c3[C@H](C1)C2,0.0274 µM,–,–,–
CCC1=C[C@@H]2Cc3nc4cc(C)ccc4c(N)c3[C@H](C1)C2,0.0045 µM,–,–,–
CCC1=C[C@@H]2Cc3nc4cc(Cl)ccc4c(N)c3[C@H](C1)C2,0.0013 µM,–,–,–
CCC1=CC2Cc3nc4cc(Cl)ccc4c(N)c3C(C1)C2 (racemic),0.00277 µM,–,–,–
CC12CC3Cc4nc5cc(Cl)ccc5c(N)c4C(C1)C3N2S(C)(=O)=O (racemic),1.32 µM,0.304 µM,9.22 µM,–
CC12CC3Cc4nc5cc(Cl)ccc5c(N)c4C(C1)C3N2 (racemic),5.68 µM,4.38 µM,> 10 µM,–
CC(=O)NC1C2C=C(C)CC1c1c(nc3cc(Cl)ccc3c1N)C2 (racemic; form 1),1.69 µM,1.37 µM,8.49 µM,–
CC1=CC2Cc3nc4cc(Cl)ccc4c(N)c3C(C1)C2NC=O (racemic; form 1),–,–,> 10 µM,0.098 µM
CC1=CC2Cc3nc4cc(Cl)ccc4c(N)c3C(C1)C2NS(C)(=O)=O (racemic; form 1),0.118 µM,0.039 µM,> 10 µM,0.0405 µM
CC1=CC2Cc3nc4cc(Cl)ccc4c(N)c3C(C1)C2N (racemic; form 1),0.389 µM,0.447 µM,6.48 µM,0.225 µM
CC(=O)NC1C2C=C(C)CC1c1c(nc3cc(Cl)ccc3c1N)C2 (racemic; form 2),–,1.33 µM,> 10 µM,–
CC1=CC2Cc3nc4cc(Cl)ccc4c(N)c3C(C1)C2NC=O (racemic; form 2),–,–,3.98 µM,–
CC1=CC2Cc3nc4cc(Cl)ccc4c(N)c3C(C1)C2NS(C)(=O)=O (racemic; form 2),1.37 µM,2.45 µM,–,–
CC1=CC2Cc3nc4cc(Cl)ccc4c(N)c3C(C1)C2N (racemic; form 2),0.482 µM,0.478 µM,0.601 µM,–
